Drawing on ChEMBL document CHEMBL3507680, “University of Dundee, Gates Library screen for HepG2 cell viability”, this text covers cytotoxicity for 69 molecules.

Molecules are shown by their SMILES.

This series is described as follows: Human HepG2 cell viability assay in 384 well format. It counts as toxicity, cell-based. More on the design: dose 125 nL, time 70.5 hour; cytotoxicity at 70.5 h: concentration not given beside the values. The conditions noted are these: HepG2 cells, read-out: Inhibition.
Take `COCCN1C[C@H]2CC[C@@H]1CN(Cc1cc(=O)c3cc(C)ccc3[nH]1)C2`: the cytotoxicity at 70.5 h was -7.09%.
For the molecule `CCN(CC)c1ncccc1CNCc1ccc(-c2ccn[nH]2)s1`, the cytotoxicity at 70.5 h was -6.37%.
In the case of `CC(C)c1nc(CN(C)C(=O)C2CC(=O)N(Cc3ccncc3)C2)cs1` (centres undefined) it was 5.05%; in that of `Cc1cccc2cc(C(=O)N3CCC(F)(F)CC3)n(C)c12`, 32.7%.
Under `O=C1CCC2(CCNCC2)CN1CCCOc1cccnc1` stands -1.48%.
In the case of `CCOCCn1c(=O)[nH]c2cc(C(=O)N(C)Cc3nc(C)c[nH]3)ccc21` it was -5.85%; in that of `COCCN1CCN(Cc2ccc3nsnc3c2)[C@H]2CS(=O)(=O)C[C@H]21`, -5.97%.
On to `CCOc1ccc2nc(CN3CCC(CNC(C)=O)C3)ccc2c1` (centres undefined), for which the cytotoxicity at 70.5 h worked out at 1.6%.
On to `COc1ccc(/C=C/CN2CCN(c3ncccc3C(N)=O)CC2)cc1`, for which the cytotoxicity at 70.5 h is -1.81%.
Turning to `N#Cc1cc2n(n1)CCN(C(=O)CCc1c[nH]c3ccccc13)C2`, the cytotoxicity at 70.5 h is -10.2%.
With `CN(Cc1cnn(C)c1)C(=O)C1COc2ccccc2C1` (centres undefined), the cytotoxicity at 70.5 h was -5.03%.
In the case of `CN1CCN2CCN(C(=O)c3cnn4cc(CCO)cnc34)CC2C1` (centres undefined) it was -8.48%; in that of `CCn1ccnc1CN(C)c1cc(OC)ncn1`, -8.04%; in that of `Cc1cc(C)c2nc(CNCCNS(C)(=O)=O)cc(O)c2c1`, -2.21%.
In the case of `Cn1cc2ncn(CCC3CCN(Cc4ccccc4)C3)c(=O)c2n1` (centres undefined) it was -7%; in that of `CC(=O)Cc1c(C)nn(-c2cncc(C(N)=O)c2)c1C`, -9.56%.
On to `CSCC[C@H](NC(C)=O)c1nc(CC(C)C)n[nH]1`, for which the cytotoxicity at 70.5 h stood at 7.09%.
In the case of `CCOCCC(=O)NCC1COc2c(cccc2OC)C1` (centres undefined), the cytotoxicity at 70.5 h is -4.38%.
For `Cc1noc(C)c1CN(C)C(=O)c1cnc(C2CC2)nc1O`, the cytotoxicity at 70.5 h stood at 8.69%.
Under `CCC(C(=O)NC1CCCCC1)n1ccc2ncccc2c1=O` (centres undefined) stands -11.8%; under `O=C(Nc1ccccc1-c1ccccc1)N1C[C@@H]2CNC[C@]2(C(=O)O)C1`, -2.53%; under `CCC(CO)N(Cc1ccsc1)Cc1c(C)nn(C)c1Cl` (centres undefined), -5.33%.
Consider `Cc1cc(CN[C@H](C(N)=O)[C@@H](C)O)c(C)s1`, for which the cytotoxicity at 70.5 h was -3.69%.
In the case of `O=C(O)CC1COCCN1C(=O)C1(c2ccc(Cl)cc2)CCC1` (centres undefined) it was 5.66%.
In the case of `CCC(=O)N1CCN(C(=O)c2ccc(COC)o2)[C@H]2CS(=O)(=O)C[C@H]21` it was -5.66%; in that of `CC1CCCCN1C1CN(C(=O)c2sccc2S(N)(=O)=O)C1` (centres undefined), -2.85%.
Under `CC(C)c1cc(C(=O)N2CCCC(Cn3cc(CO)nn3)C2)on1` (centres undefined) stands -2.32%; under `CN(CCCc1nccn1C)c1nccc(-c2cc(C(=O)O)ccn2)n1`, -3.33%.
`CN1CCc2[nH]nc(C(=O)N3CCCC4(CN(C)C(=O)O4)C3)c2C1` (centres undefined): the cytotoxicity at 70.5 h was -6.4%.
Under `O=C(NCCc1c[nH]cn1)C1CCCN(C2CCOCC2)C1` (centres undefined) stands -5.69%; under `CCN(CC)C(CNCc1ccc(C)o1)c1ccco1` (centres undefined), -11.7%; under `Cc1nnsc1CN1C[C@H]2CC[C@@H]1CN(Cc1ccc(F)cc1)C2`, 27.1%.
Under `CN(Cc1ccccc1)C1(C(=O)NCC(N)=O)Cc2ccccc2C1` stands 5.7%; under `O=C1NC(C(=O)NCc2cccnc2Oc2ccc(F)c(F)c2)CO1` (centres undefined), -21.4%; under `COc1cc2c(cc1-c1nc3c(cnn3C)[nH]1)OCO2`, 12.3%.
In the case of `Cc1nc(N(C)C)nc(NCCc2ccccn2)c1C` it was -9.09%.
With `CCC(=O)N1CCN(C(=O)Nc2cccc(F)c2)[C@H]2CS(=O)(=O)C[C@H]21`, the cytotoxicity at 70.5 h is -2.91%.
Under `CCOCC1CCN(C(=O)C(c2ccc(F)cc2)N(C)C)CC1` (centres undefined) stands -8%; under `Nc1nc(CCCNC(=O)c2ccccc2C2CCNC2)cs1` (centres undefined), -20.9%.
In the case of `COc1cccc([C@H]2CN(C(=O)c3nnc4n3CCCC4)C[C@@H]2N)c1` it was -3.91%; in that of `CC(C)C1CN(Cc2cnc(N(C)C)nc2)CCCN1CC1CC1` (centres undefined), -10%.
In the case of `CCSc1ncc(-c2cc(C3CC3)nc(N)c2C#N)cn1` it was -4.52%.
As to `c1cn(CCc2c[nH]cn2)c(-c2cc(CN3CCCC3)cs2)n1`, the cytotoxicity at 70.5 h is -9.06%.
Under `COCCC1(CO)CCCN(C(=O)c2cccnc2O)C1` (centres undefined) stands -3.89%; under `CNS(=O)(=O)c1ccc(CN2CCC(c3ccncc3)CC2)cc1`, -14.4%.
In the case of `Cc1ccc(CN2CCN(C3CCC3)CC2CCO)o1` (centres undefined) it was -10.1%; in that of `CCN(C)C(=O)c1cccc(S(=O)(=O)NCCc2csc(N)n2)c1`, 19.2%; in that of `O=C1C[C@H]2CC[C@@H](CN1)N2C(=O)CCc1ccccc1`, -8.36%.
Regarding `CCN(CC)CCn1cnc(-c2ccccc2)c1-c1cnc(C)s1`, the cytotoxicity at 70.5 h was -7.41%.
With `CC(C)=CCC/C(C)=C/CN1CCN(C)C2(CCNC(=O)CC2)C1` (centres undefined), the cytotoxicity at 70.5 h is -9.38%.
Under `CN(C)c1ccc(-c2cccc(-c3ccn(CCCO)n3)c2)nn1` stands -3.34%.
In the case of `CCCSc1ncc(C2CC(=O)NCc3nc4ccccn4c32)cn1` (centres undefined) it was -3.19%.
For `CC(C)c1nccc(CN2CCCC(O)(CN(C)C)CC2)n1` (centres undefined), the cytotoxicity at 70.5 h was -7.74%.
In the case of `CCN1CC(C(=O)NCCc2csc(-c3ccncc3)n2)CC1=O` (centres undefined) it was -4.27%; in that of `COC(=O)c1cccc(-c2nc(CC3CCN(C)CC3)no2)c1`, -3.78%.
Under `Cn1cc(CN2CCCN(CCCc3ccccc3)CC2)cn1` stands -15.4%; under `CC(C)n1ccnc1Cn1ccc2ncccc2c1=O`, -0.693%.
In the case of `CC(C)C1CN(S(=O)(=O)N2CCCC2)CCCN1Cc1ccc(F)cc1` (centres undefined) it was -3.07%; in that of `COc1nc2c(cc1C(=O)N(C)Cc1[nH]nc3c1CCC3)CCC2`, 27.9%; in that of `COCc1cc(NCc2cccnc2Oc2ccc(C)nc2)ncn1`, -12.4%.
In the case of `CC(C)[C@@H]1CN(C(=O)NCCc2ccccc2)C[C@H]1NS(=O)(=O)N(C)C`, the cytotoxicity at 70.5 h was found to be 2.29%.
In the case of `Cc1ccccc1N1CCN(C(=O)CSc2ccncc2)CC1=O` it was -8.48%; in that of `N#Cc1cccc(C(=O)N2C[C@H]3CC[C@@H]2CN(C(=O)C2CCC2)C3)c1`, -4.08%; in that of `CCNc1ncc(CN2CCOC(Cc3cccc(OC)c3)C2)cn1` (centres undefined), -2.81%.
In the case of `NCCC1CN(Cc2cnc3c(-c4ccccc4)cnn3c2)CCO1` (centres undefined) it was -2.68%; in that of `CCN1CCC[C@@H]1CNC(=O)c1cc(COc2ccccc2)[nH]n1`, -1.42%.
Under `O=C(O)c1ccc(C2CCCN(Cc3ccc(-c4cc[nH]n4)o3)C2)cc1` (centres undefined) stands 16.9%; under `c1cc(CNc2ccc(-c3nc(C4CC4)no3)cn2)no1`, -8.43%; under `CCN1CCC(N[C@@H]2CC[C@@H]2NC(=O)Cc2csc(C)n2)CC1`, -1.08%.
